Reference: US11639350B2, “Heteroaryldihydropyrimidine derivatives and methods of treating hepatitis B infections” (Janssen Pharmaceutica NV, priority 2018, dated 2023)
Where two headings read alike, the source gives them in different places.

How the values were obtained:
HBV = HBV inhibitory activity: HBV DNA in the culture medium of HepG2.2.15 cells by q-PCR; format: cell-based; details: HepG2.2.15 cells, 6 days of compound treatment, HBV DNA in culture medium by q-PCR, highest concentration 10 μM, read-out: EC50
How it was run: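 HepG2.2.15 cells in 2% FBS medium, 40,000 per well, treated 6 days with compound (medium refreshed once), eight 3-fold dilutions from 10 μM top. HBV DNA extracted from culture medium and quantified by q-PCR; EC50 averaged over repeats. Cytotoxicity run in parallel at 5,000 cells per well, top 100 μM, giving CC50.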

[1] = Cytotoxicity determination in HepG2.2.15 cells (CCK-8); format: cell-based; details: human, 6 days of compound treatment, CCK-8, highest concentration 100 μM
How it was run: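 HepG2.2.15 cells seeded at 5,000 cells/well in 2% FBS medium, incubated overnight at 37° C., then treated 6 days with compounds (8 points, 3-fold dilutions, top 100 μM), medium refreshed once midway. CCK-8 added for 2.5 h; A450 read against 630 nm reference; CC50 calculated, averaged over repeats.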

[2] = Hepatitis B virus, HepG2.2.15, 144 h

Row | SMILES | EC50 (HBV; [2]) [nM] | CC50 at 6 days [1] [nM] | EC50 (HBV) [nM]
1 | COC(=O)C1=C(C2CCN(S(=O)(=O)C(F)F)CC2)NC(c2nccs2)=NC1c1ccc(F)c(F)c1Cl (single isomer, unassigned) [Compound 166A, Methyl 4-(2-chloro-3,4-difluorophenyl)-6-(1-((difluoromethyl)sulfonyl)piperidin-4-yl)-2-(thiazol-2-yl)-1,4-dihydropyrimidine-5-carboxylate] | 61 | > 50000 | –
2 | CNS(=O)(=O)[C@H]1CC[C@H](C2=C(C(=O)OC)C(c3ccc(F)c(F)c3Cl)N=C(c3c(F)cc(F)cc3F)N2)CC1 (single isomer, unassigned) [Compound 167A, methyl 4-(2-chloro-3,4-difluorophenyl)-6-((trans)-4-(N-methylsulfamoyl)cyclohexyl)-2-(2,4,6-trifluorophenyl)-1,4-dihydropyrimidine-5-carboxylate] | 34 | 11600 | –
3 | CNS(=O)(=O)[C@H]1CC[C@H](C2=C(C(=O)OC)C(c3ccc(F)c(F)c3Cl)N=C(c3ncc(F)cc3F)N2)CC1 (single isomer, unassigned) [Compound 168A, methyl 4-(2-chloro-3,4-difluorophenyl)-2-(3,5-difluoropyridin-2-yl)-6-((trans)-4-(N-methylsulfamoyl)cyclohexyl)-1,4-dihydropyrimidine-5-carboxylate] | 6 | 12500 | –
4 | COC(=O)C1=C([C@H]2CC[C@H](S(=O)(=O)N3CCCC3)CC2)NC(c2nccs2)=NC1c1ccc(F)c(F)c1Cl (single isomer, unassigned) [Compound 169A, (trans)-Methyl 4-(2-chloro-3,4-difluorophenyl)-6-(4-(pyrrolidin-1-ylsulfonyl)cyclohexyl)-2-(thiazol-2-yl)-1,4-dihydropyrimidine-5-carboxylate] | 56 | > 100000 | –
5 | COC(=O)C1=C([C@H]2CCC[C@@H](CO)C2)NC(c2nccs2)=NC1c1ccc(F)cc1Cl (single isomer, unassigned) [Compound 173A, Methyl 4-(2-chloro-4-fluorophenyl)-6-((cis)-3-(hydroxymethyl)cyclohexyl)-2-(thiazol-2-yl)-1,4-dihydropyrimidine-5-carboxylate] | 76 | 18600 | –
6 | COC(=O)C1=C([C@H]2CC[C@H](C(=O)OC)CC2)NC(c2ncc(F)cc2F)=NC1c1ccc(F)cc1Cl (single isomer, unassigned) [Compound 174A, Methyl 4-(2-chloro-4-fluorophenyl)-2-(3,5-difluoropyridin-2-yl)-6-((trans)-4-(methoxycarbonyl)cyclohexyl)-1,4-dihydropyrimidine-5-carboxylate] | 128 | 19400 | –
7 | COC(=O)C1=C(C2C[C@@H]3CN(S(C)(=O)=O)C[C@@H]3C2)NC(c2nccs2)=NC1c1ccc(F)cc1Cl (single isomer, unassigned) [Compound 176A, Methyl 4-(2-chloro-4-fluorophenyl)-6-((cis)-2-(methylsulfonyl)-octahydrocyclopenta[c]pyrrol-5-yl)-2-(thiazol-2-yl)-1,4-dihydropyrimidine-5-carboxylate] | 69 | 19900 | –
8 | COC(=O)C1=C([C@H]2CC[C@@H](N(CCO)S(C)(=O)=O)CC2)NC(c2nccs2)=NC1c1ccc(F)cc1Cl (single isomer, unassigned) [Compound 180B, (cis)-Methyl 4-(2-chloro-4-fluorophenyl)-6-(4-(N-(2-hydroxyethyl)methylsulfonamido)cyclohexyl)-2-(thiazol-2-yl)-1,4-dihydro-pyrimidine-5-carboxylate] | 24 | 22100 | –
9 | COCCS(=O)(=O)N[C@H]1CC[C@H](C2=C(C(=O)OC)C(c3ccc(F)cc3Cl)N=C(c3nccs3)N2)CC1 (single isomer, unassigned) [Compound 182A, (trans)Methyl 4-(2-chloro-4-fluorophenyl)-6-(4-(2-methoxyethylsulfonamido)cyclohexyl)-2-(thiazol-2-yl)-1,4-dihydropyrimidine-5-carboxylate] | 93 | 33600 | –
10 | COC(=O)C1=C(C2CCN(S(=O)(=O)CCO)CC2)NC(c2nccs2)=NC1c1ccc(F)cc1Cl (single isomer, unassigned) [Compound 185B, Methyl 4-(2-chloro-4-fluorophenyl)-6-(1-((2-hydroxyethyl)sulfonyl)piperidin-4-yl)-2-(thiazol-2-yl)-1,4-dihydropyrimidine-5-carboxylate] | 18 | 26200 | –
11 | CCCS(=O)(=O)N[C@H]1CC[C@H](C2=C(C(=O)OC)C(c3ccc(F)cc3Cl)N=C(c3nccs3)N2)CC1 (single isomer, unassigned) [Compound 186A, (trans)-Methyl 4-(2-chloro-4-fluorophenyl)-6-(4-(propyl-sulfonamido)cyclohexyl)-2-(thiazol-2-yl)-1,4-dihydropyrimidine-5-carboxylate] | 97 | 83100 | –
12 | COC(=O)C1=C([C@H]2C[C@H](NS(C)(=O)=O)C2)NC(c2nccs2)=NC1c1ccc(F)cc1Cl (single isomer, unassigned) [Compound 206B, (trans)-Methyl 4-(2-chloro-4-fluorophenyl)-6-(3-(methylsulfonamido)cyclobutyl)-2-(thiazol-2-yl)-1,4-dihydropyrimidine-5-carboxylate] | 108 | 26100 | –
13 | COC(=O)C1=C([C@H]2C[C@@H](NS(C)(=O)=O)C2)NC(c2nccs2)=NC1c1ccc(F)cc1Cl (single isomer, unassigned) [Compound 206D, (cis)-Methyl 4-(2-chloro-4-fluorophenyl)-6-(3-(methylsulfonamido)cyclobutyl)-2-(thiazol-2-yl)-1,4-dihydropyrimidine-5-carboxylate] | 389 | 39200 | –
14 | COC(=O)C1=C(C2CCN(C)C2)NC(c2nccs2)=NC1c1ccc(F)cc1Cl (single isomer, unassigned) [Compound 207C, methyl 4-(2-chloro-4-fluorophenyl)-6-(−1-methylpyrrolidin-3-yl)-2-(thiazol-2-yl)-1,4-dihydropyrimidine-5-carboxylate] | 753 | > 20000 | –
15 | COC(=O)C1=C(C2CCN(S(=O)(=O)CC(=O)O)C2)NC(c2nccs2)=NC1c1ccc(F)cc1Cl (single isomer, unassigned) [Compound 214A, 2-((−3-(−6-(2-Chloro-4-fluorophenyl)-5-(methoxycarbonyl)-2-(thiazol-2-yl)-3,6-dihydropyrimidin-4-yl)pyrrolidin-1-yl)sulfonyl)acetic Acid] | – | > 100000 | 196
16 | COC(=O)C1=C(C2CCN(S(=O)(=O)[C@H]3C[C@H](C(=O)O)C3)CC2)NC(c2nccs2)=NC1c1ccc(F)c(F)c1Cl (single isomer, unassigned) [Compound 232B, (trans)-3-((4-(6-(2-Chloro-3,4-difluorophenyl)-5-(methoxycarbonyl)-2-(thiazol-2-yl)-3,6-dihydropyrimidin-4-yl)piperidin-1-yl)sulfonyl)cyclobutanecarboxylic Acid] | 57 | 60000 | –
17 | COC(=O)C1=C([C@H]2CC[C@@H](S(=O)(=O)N(C)C)CC2)NC(c2nccs2)=NC1c1ccc(F)c(F)c1Cl (single isomer, unassigned) [Compound 233B, (cis)-Methyl 4-(2-chloro-3,4-difluorophenyl)-6-(4-(N,N-dimethylsulfamoyl)cyclohexyl)-2-(thiazol-2-yl)-1,4-dihydropyrimidine-5-carboxylate] | 56 | 6300 | –
18 | COC(=O)C1=C([C@H]2CC[C@H](S(=O)(=O)N(C)C)CC2)NC(c2nccs2)=NC1c1ccc(F)c(F)c1Cl (single isomer, unassigned) [Compound 233C, (trans)-methyl 4-(2-chloro-3,4-difluorophenyl)-6-(4-(N,N-dimethylsulfamoyl)cyclohexyl)-2-(thiazol-2-yl)-1,4-dihydropyrimidine-5-carboxylate] | 13 | 5600 | –
19 | COC(=O)C1=C([C@H]2CC[C@@H](S(=O)(=O)NC(C)C)CC2)NC(c2nccs2)=NC1c1ccc(F)c(F)c1Cl (single isomer, unassigned) [Compound 234B, (cis)-methyl 4-(2-chloro-3,4-difluorophenyl)-6-(4-(N-isopropylsulfamoyl)cyclohexyl)-2-(thiazol-2-yl)-1,4-dihydropyrimidine-5-carboxylate] | 113 | 16300 | –
20 | COC(=O)C1=C([C@H]2CC[C@H](S(=O)(=O)NC(C)C)CC2)NC(c2nccs2)=NC1c1ccc(F)c(F)c1Cl (single isomer, unassigned) [Compound 234D, (trans)-methyl 4-(2-chloro-3,4-difluorophenyl)-6-(4-(N-isopropylsulfamoyl)cyclohexyl)-2-(thiazol-2-yl)-1,4-dihydropyrimidine-5-carboxylate] | 13 | 4200 | –
21 | COC(=O)C1=C([C@H]2CC[C@H](C(=O)OC)CC2)NC(c2nc(C)cs2)=NC1c1ccc(F)cc1Br (single isomer, unassigned) [Compound 239X, (trans)-Methyl 4-(2-bromo-4-fluorophenyl)-6-(4-(methoxycarbonyl)cyclohexyl)-2-(4-methylthiazol-2-yl)-1,4-dihydropyrimidine-5-carboxylate] | 149 | 14800 | –
